From patent US7056922B2, “Acylamino cyclopropane derivatives” (Pfizer Inc, priority 2000, dated 2006)
Where a name gives a salt, the structure may show the parent alone.

Tests used:
[1] = target: human dopamine D3 receptor (Homo sapiens, UniProt P35462); experiment: Displacement of [3H] 7 OH-DPAT binding to membranes of CHO cells expressing human dopamine D3 receptor; settings: [3H] 7 OH-DPAT 0.4 nM, CHO cell membranes, cloned human D3 receptor
Method: The inhibition constants (Ki) of test compounds were measured by displacement of [^3H] 7 OH-DPAT binding to membrane preparations from Chinese hamster ovary cells expressing human dopamine D3 receptor. Cells expressing the human D3 receptor were homogenized with Polytron and centrifuged for 10 min at 4° C. at 20,000 RPM in a Sorvall RCB5 centrifuge with a SS34 rotor. After repeating the washing once more, the pellet was resuspended in buffer consisting of 120 mM NaCl, 5 mM KCl, 5 mM MgCl2, 2 mM CaCl2 and 50 mM tris, pH 7.4 and the protein content determined using bovine serum albumin as a standard (Bradford, M. M. (1976) Anal. Biochem. 72, 248–254). Compounds at varying concentrations were incubated with the membrane preparations in the presence of 0.4 nM [^3H] 7 OH-DPAT. The assay was incubated for 15 min at 37° C. and the reaction was terminated by rapid filtration with 50 mM Tris pH 7.4, through GF/B filters previously soaked in 0.5% polyethyleneimine. Filters were dried overnight and counted in Betaplate Scintillation counter. Non-specific binding was defined as the radioligand binding remaining after incubation in the presence of 10 μM butacomol. For competition curves, seven concentrations (single log dilutions) of competing unlabeled, compounds were used. Competition curves were analysed simultaneously whenever possible using non-linear least-squares fitting procedures, capable of fitting one, two or three site models.

[2] = target: dopamine D2 receptor (Homo sapiens, UniProt P14416); experiment: Dopamine D2 receptor binding (Binding data table)
dopamine D2 receptor, sequence (P14416 whole entry, species assumed): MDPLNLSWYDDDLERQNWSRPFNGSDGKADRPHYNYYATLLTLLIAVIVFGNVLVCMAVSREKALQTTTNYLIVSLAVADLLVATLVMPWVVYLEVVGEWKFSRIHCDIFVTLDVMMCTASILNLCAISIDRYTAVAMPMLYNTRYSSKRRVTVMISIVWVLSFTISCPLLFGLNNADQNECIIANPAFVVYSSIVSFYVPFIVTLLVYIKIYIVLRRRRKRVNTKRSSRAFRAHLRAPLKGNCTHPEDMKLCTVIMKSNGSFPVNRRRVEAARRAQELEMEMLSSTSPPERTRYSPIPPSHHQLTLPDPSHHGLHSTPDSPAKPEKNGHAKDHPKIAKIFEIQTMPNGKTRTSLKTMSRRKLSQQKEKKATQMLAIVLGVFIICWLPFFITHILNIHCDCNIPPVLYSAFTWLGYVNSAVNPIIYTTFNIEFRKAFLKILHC

human dopamine D3 receptor, sequence (P35462 whole entry): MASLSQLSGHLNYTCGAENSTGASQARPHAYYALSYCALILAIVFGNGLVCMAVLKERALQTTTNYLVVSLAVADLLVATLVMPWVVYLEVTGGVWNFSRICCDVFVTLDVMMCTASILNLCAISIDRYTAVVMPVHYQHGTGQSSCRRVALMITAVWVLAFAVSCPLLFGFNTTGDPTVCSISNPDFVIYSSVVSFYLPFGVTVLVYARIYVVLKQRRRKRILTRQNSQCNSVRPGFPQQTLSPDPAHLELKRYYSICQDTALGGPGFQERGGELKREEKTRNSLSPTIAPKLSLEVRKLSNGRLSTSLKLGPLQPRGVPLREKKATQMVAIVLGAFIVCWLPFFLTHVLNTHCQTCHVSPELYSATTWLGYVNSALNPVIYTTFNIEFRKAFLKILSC

## Cc1cccc(C)c1C(=O)NCC1CC1CN1CCN(c2cc(C(F)(F)F)nc(C(C)(C)C)n2)CC1 (racemic) [N-{(Z)-2-[4-(2-tert-Butyl-6-trifluoromethyl-pyrimidin-4-yl)-piperazin-1-ylmethyl]-cyclopropylmethyl}-2,6-dimethyl-benzamide, dihydrochloride salt]
[1]
  Ki: 16 nM
[2]
  Ki: > 770 nM

## CC(C)(C)c1nc(N2CCN(CC3CC3CNC(=O)c3ccc(Cl)cc3)CC2)cc(C(F)(F)F)n1 (racemic) [[Z](+/−)N-{2-[4-(2-tert-Butyl-6-trifluoromethyl-pyrimidin-4-yl)-piperazin-1-ylmethyl]-cyclopropylmethyl}-4-chloro-benzamide]
[1]
  Ki: 31 nM
[2]
  Ki: > 740 nM

## Cc1cccc(C)c1C(=O)NCC1CC1CN1CCN(c2cccc(C(F)(F)F)c2)CC1 (single isomer, unassigned) [2,6-Dimethyl-N-{(E)-2-[4-(3-trifluoromethyl-phenyl)-piperazin-1-ylmethyl]-cyclopropylmethyl}benzamide]
[1]
  Ki: 2 nM
[2]
  Ki: 76 nM

## Cc1cccc(C)c1C(=O)NCC1CC1CN1CCN(c2cccc(C(F)(F)F)c2)CC1 (single isomer, unassigned) [2,6-Dimethyl-N-{(Z)-2-[4-(3-trifluoromethyl-phenyl)-piperazin-1-ylmethyl]-cyclopropylmethyl}benzamide]
[1]
  Ki: 5 nM
[2]
  Ki: 460 nM
